Measurements taken from patent US20240158446A1, “CYCLIC COMPOUND HAVING SELECTIVE INHIBITORY ACTION ON KRAS OVER HRAS AND NRAS” (CHUGAI SEIYAKU KABUSHIKI KAISHA, priority 2021, published 2024).
pKd: −log10 of the molar value. Where two headings read alike, the source gives them in different places. *1 amine or outer side, *2 acyl side, *3 side chain or, on linkers, in order; H or OH if unused. Where a SMILES comes first, the peptide text is derived from it. Bridges are numbered along the chain shown (N, C = ends). [ ]: non-standard residue; d: D form. The star is where a group is joined. hPhe(3-Cl-4-CF3) = N[C@@H](CCc1ccc(C(F)(F)F)c(Cl)c1)C(=O)O; X37 = O=C([C@H](Cc1ccc(C(F)(F)F)cc1)N(CC1CCC1)[*:1])[*:2]; NPrPhe(4-CF3) = CCCN[C@@H](Cc1ccc(C(F)(F)F)cc1)C(=O)O; NMeGly(cPent) = CN[C@H](C(=O)O)C1CCCC1; Hyp = O=C(O)[C@@H]1C[C@@H](O)CN1; NMeD = CN[C@@H](CC(=O)O)C(=O)O; NMeL = CN[C@@H](CC(C)C)C(=O)O; Morpholide = C1CN(*)CCO1; NMeA = CN[C@@H](C)C(=O)O; Ac5c = NC1(C(=O)O)CCCC1; Aze = O=C(O)[C@@H]1CCN1; NEtG = CCNCC(=O)O; Sar = CNCC(=O)O

Experiments:
[1] = biological target: GDP-bound HRAS wild-type protein (Homo sapiens, UniProt P01112); experiment: Binding to HRAS by surface plasmon resonance (SPR), Single Cycle Kinetics; settings: for HRAS/KRAS (ratio of KD value with respect to HRAS to KD value with respect to KRAS) / HRAS/KRAS (ratio of KD value for HRAS to KD value for KRAS): SPR, GDP-bound HRAS wild-type protein vs GDP-bound KRAS wild-type protein; for HRAS/KRAS (ratio of KD value with respect to GDP-bound HRAS wild-type protein to KD value with respect to KRAS): SPR KD ratio HRAS/KRAS, class symbols
[2] = biological target: GDP-bound KRAS wild-type protein (Homo sapiens, UniProt P01116); experiment: Binding to KRAS by surface plasmon resonance (SPR), Single Cycle Kinetics; settings: GDP-bound KRAS wild-type protein, read-out: KRAS KD
[3] = biological target: GDP-bound NRAS wild-type protein (Homo sapiens, UniProt P01111); experiment: Binding to NRAS by surface plasmon resonance (SPR), Single Cycle Kinetics; settings: for NRAS/KRAS (ratio of KD value with respect to NRAS to KD value with respect to KRAS) / NRAS/KRAS (ratio of KD value for NRAS to KD value for KRAS): SPR, GDP-bound NRAS wild-type protein vs GDP-bound KRAS wild-type protein; for NRAS/KRAS (ratio of KD value with respect to GDP-bound NRAS wild-type protein to KD value with respect to KRAS): SPR KD ratio NRAS/KRAS, class symbols
[4] = SPR Single Cycle Kinetics, 1:1 binding model

Chain of GDP-bound KRAS wild-type protein (P01116 whole entry): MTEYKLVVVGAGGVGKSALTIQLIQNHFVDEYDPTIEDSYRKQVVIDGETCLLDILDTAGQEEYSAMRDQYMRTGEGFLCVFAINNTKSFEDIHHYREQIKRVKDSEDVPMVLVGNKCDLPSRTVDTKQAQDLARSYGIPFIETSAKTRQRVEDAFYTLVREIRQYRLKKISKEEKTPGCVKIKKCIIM
Chain of GDP-bound NRAS wild-type protein (P01111 whole entry): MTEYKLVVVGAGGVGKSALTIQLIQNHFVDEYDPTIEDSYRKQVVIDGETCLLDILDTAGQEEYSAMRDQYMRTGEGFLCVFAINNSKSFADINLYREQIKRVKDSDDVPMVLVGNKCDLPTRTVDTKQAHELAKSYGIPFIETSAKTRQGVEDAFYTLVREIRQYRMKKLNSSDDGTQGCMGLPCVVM
Chain of GDP-bound HRAS wild-type protein (P01112 whole entry): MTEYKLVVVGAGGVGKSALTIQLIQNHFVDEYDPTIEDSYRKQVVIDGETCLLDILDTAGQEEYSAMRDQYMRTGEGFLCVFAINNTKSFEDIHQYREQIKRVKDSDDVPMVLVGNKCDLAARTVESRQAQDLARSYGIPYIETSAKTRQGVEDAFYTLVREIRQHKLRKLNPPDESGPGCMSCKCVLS

Row | pKd [2, 4] | Compound | HRAS/KRAS (ratio of KD value with respect to HRAS to KD value with respect to KRAS) [1] | NRAS/KRAS (ratio of KD value with respect to NRAS to KD value with respect to KRAS) [3] | HRAS/KRAS (ratio of KD value for HRAS to KD value for KRAS) [1] | NRAS/KRAS (ratio of KD value for NRAS to KD value for KRAS) [3] | other results
1 | 8.77 | CC[C@H](C)[C@@H]1NC(=O)[C@H](CC(C)C)N(C)C(=O)C[C@@H](C(=O)N2CCOCC2)N(C)C(=O)[C@H](C2CCCC2)N(C)C(=O)C2(CCCC2)NC(=O)[C@@H]2CCCN2C(=O)[C@H](CCc2ccc(C(F)(F)F)c(Cl)c2)NC(=O)CN(C)C(=O)[C@H](Cc2ccc(Cl)cc2)N2C/C=C\CC[C@@H](C2=O)N(C)C(=O)CN(C)C1=O [PP0608] | B (a compound having 3 or more and less than 10 is denoted as B) | C (A compound having a KD ratio of 0.1 or more and less than 3 is denoted as C) | – | – | –
2 | 9.33 | CCCN1C(=O)[C@@H]2CCN2C(=O)CN(C)C(=O)[C@H]([C@@H](C)CC)NC(=O)[C@H](CC(C)C)N(C)C(=O)C[C@@H](C(=O)N2CCOCC2)NC(=O)[C@H](C2CCCC2)N(C)C(=O)C2(CCCC2)NC(=O)[C@@H]2C[C@@H](OCC)CN2C(=O)[C@H](CCc2ccc(C(F)(F)F)c(Cl)c2)NC(=O)CN(C)C(=O)[C@@H]1Cc1ccc(C(F)(F)F)cc1 [PP0353] ([NMeL]I[Sar][Aze][NPrPhe(4-CF3)][Sar][hPhe(3-Cl-4-CF3)][Hyp](Et)[Ac5c][NMeGly(cPent)]D-Morpholide; lactam N-11) | – | – | B (a compound having 3 or more and less than 10 is denoted as B) | C (A compound having a KD ratio of 0.1 or more and less than 3 is denoted as C) | –
3 | – | CCO[C@@H]1C[C@H]2C(=O)NC3(CCCC3)C(=O)N(C)[C@@H](C3CCCC3)C(=O)N(C)[C@H](C(=O)N(C)C)CC(=O)N(C)[C@@H](CC(C)C)C(=O)N[C@@H]([C@@H](C)CC)C(=O)N(C)CC(=O)N(C)[C@H]3CC(C)=C(C)CN(C3=O)[C@@H](Cc3ccc(C(F)(F)F)cc3)C(=O)N(C)CC(=O)N[C@@H](CCc3cc(F)c(C(F)(F)F)c(F)c3)C(=O)N2C1 [PP1045] | – | – | C (A compound having a KD ratio of 0.1 or more and less than 3 is denoted as C) | C (A compound having a KD ratio of 0.1 or more and less than 3 is denoted as C) | pKd ([2]; SPR, Single Cycle Kinetics): 8.77
4 | 9.34 | CCO[C@@H]1C[C@H]2C(=O)NC3(CCCC3)C(=O)N(C)[C@@H](C3CCCC3)C(=O)N(C)[C@H](C(=O)N(C)C)CC(=O)N(C)[C@@H](C)C(=O)N[C@@H]([C@@H](C)CC)C(=O)N(C)CC(=O)N(C)[C@H]3CCCCCN(C3=O)[C@@H](Cc3ccc(C(F)(F)F)cc3)C(=O)N(C)CC(=O)N[C@@H](CCc3cc(F)c(C(F)(F)F)c(F)c3)C(=O)N2C1 [PP0475] | B (a compound having 3 or more and less than 10 is denoted as B) | B (a compound having 3 or more and less than 10 is denoted as B) | – | – | –
5 | 9.44 | CCC(CC)[C@H]1C(=O)N(C)[C@H](C(=O)N(C)C)CC(=O)N(C)[C@@H](COC)C(=O)N[C@@H]([C@@H](C)CC)C(=O)N(C)CC(=O)N(C)[C@H]2C/C=C\CCN(C2=O)[C@@H](Cc2ccc(C(F)(F)F)cc2)C(=O)N(C)CC(=O)N[C@@H](CCc2cc(F)c(C(F)(F)F)c(F)c2)C(=O)N2CC3(CC3)C[C@H]2C(=O)NC2(CC(C)(C)C2)C(=O)N1C [PP2961] | – | – | – | – | HRAS/KRAS (ratio of KD value with respect to GDP-bound HRAS wild-type protein to KD value with respect to KRAS) [1]: A (a compound having 10 or more and less than 20 is denoted as A); NRAS/KRAS (ratio of KD value with respect to GDP-bound NRAS wild-type protein to KD value with respect to KRAS) [3]: AA (a compound having 20 or more is denoted as AA)
6 | 8.89 | CCCN1C(=O)CN(C)C(=O)CN(CC)C(=O)[C@H]([C@@H](C)CC)NC(=O)[C@H](CC(C)C)N(C)C(=O)C[C@@H](C(=O)N(C)C)NC(=O)[C@H](C2CCCC2)N(C)C(=O)C2(CCCC2)NC(=O)[C@@H]2CCCN2C(=O)[C@H](CCc2ccc(C(F)(F)F)c(Cl)c2)NC(=O)CN(C)C(=O)[C@@H]1Cc1ccc(C(F)(F)F)cc1 [PP0367] ([NMeL]I[NEtG][Sar][NPrPhe(4-CF3)][Sar][hPhe(3-Cl-4-CF3)]P[Ac5c][NMeGly(cPent)]D-NMe2; lactam N-11) | – | – | B (a compound having 3 or more and less than 10 is denoted as B) | B (a compound having 3 or more and less than 10 is denoted as B) | –
7 | 9.74 | CC[C@H](C)[C@@H]1NC(=O)[C@H](CC(C)C)N(C)C(=O)C[C@@H](C(=O)N2CCOCC2)N(C)C(=O)[C@H](C2CCCC2)N(C)C(=O)C2(CCOCC2)NC(=O)[C@@H]2CCCN2C(=O)[C@H](CCc2cc(F)c(C(F)(F)F)c(F)c2)NC(=O)CN(C)C(=O)[C@H](Cc2ccc(C(F)(F)F)cc2)N2CCCC[C@@H](C2=O)N(C)C(=O)CN(C)C1=O [PP0564] | B (a compound having 3 or more and less than 10 is denoted as B) | B (a compound having 3 or more and less than 10 is denoted as B) | – | – | –
8 | 8.89 | CC[C@H](C)[C@@H]1NC(=O)[C@H](CC(C)C)N(C)C(=O)C[C@@H](C(=O)N2CCOCC2)N(C)C(=O)[C@H](C2CCCC2)N(C)C(=O)C2(CCCC2)NC(=O)[C@@H]2CCCN2C(=O)[C@H](CCc2ccc(C(F)(F)F)c(Cl)c2)NC(=O)CN(C)C(=O)[C@H](Cc2ccc(C(F)(F)F)cc2)N(CC2CCC2)C(=O)[C@@H]2CCN2C(=O)[C@H](C)N(C)C1=O [PP0109] ([NMeL]I[NMeA][Aze][X37][Sar][hPhe(3-Cl-4-CF3)]P[Ac5c][NMeGly(cPent)][NMeD]-Morpholide; lactam N-11) | – | – | B (a compound having 3 or more and less than 10 is denoted as B) | C (A compound having a KD ratio of 0.1 or more and less than 3 is denoted as C) | –
9 | 10.47 | CC[C@H](C)[C@@H]1NC(=O)[C@H](CC)N(C)C(=O)C[C@@H](C(=O)N(C)C)N(C)C(=O)[C@H](C2CCCC2)N(C)C(=O)C2(CCC2)NC(=O)[C@@H]2CCCCN2C(=O)[C@H](CCc2cc(F)c(C(F)(F)F)c(F)c2)NC(=O)CN(C)C(=O)[C@H](Cc2ccc(C(F)(F)F)cc2)N2CCCC[C@@H](C2=O)N(C)C(=O)CN(C)C1=O [PP0658] | B (a compound having 3 or more and less than 10 is denoted as B) | C (A compound having a KD ratio of 0.1 or more and less than 3 is denoted as C) | – | – | –
10 | – | CCO[C@@H]1C[C@H]2C(=O)NC3(CCC3)C(=O)N(C)[C@@H](C3CCCC3)C(=O)N(C)[C@H](C(=O)N3CCOCC3)CC(=O)N(C)[C@@H](CC)C(=O)N[C@@H]([C@@H](C)CC)C(=O)N3CC[C@H]3C(=O)N(C)[C@H]3CC(C)=CCN(C3=O)[C@@H](Cc3ccc(C(F)(F)F)cc3)C(=O)N(C)CC(=O)N[C@@H](CCc3cc(F)c(C(F)(F)F)c(F)c3)C(=O)N2C1 [PP1042] | – | – | C (A compound having a KD ratio of 0.1 or more and less than 3 is denoted as C) | C (A compound having a KD ratio of 0.1 or more and less than 3 is denoted as C) | pKd ([2]; SPR, Single Cycle Kinetics): 8.89
11 | – | CCO[C@@H]1C[C@H]2C(=O)NC3(CCC3)C(=O)N(C)[C@@H](C3CCCC3)C(=O)N(C)[C@H](C(=O)N(C)C)CC(=O)N(C)[C@@H](CC)C(=O)N[C@@H]([C@@H](C)CC)C(=O)N(C)CC(=O)N(C)[C@H]3CCCCN(C3=O)[C@@H](Cc3ccc(C(F)(F)F)cc3)C(=O)N(C)CC(=O)N[C@@H](CCc3ccc4sccc4c3)C(=O)N2C1 [PP0887] | – | – | C (A compound having a KD ratio of 0.1 or more and less than 3 is denoted as C) | C (A compound having a KD ratio of 0.1 or more and less than 3 is denoted as C) | pKd ([2]; SPR, Single Cycle Kinetics): 10.03
12 | 8.40 | CCC[C@H]1C(=O)N[C@@H]([C@@H](C)CC)C(=O)N(C)CC(=O)N(C)[C@H]2C/C=C\CCN(C2=O)[C@@H](Cc2ccc(C(F)(F)F)cc2)C(=O)N(C)CC(=O)N[C@@H](CCc2ccc(Cl)c(Cl)c2)C(=O)N2CCOC[C@H]2C(=O)NC2(CC(C)(C)C2)C(=O)N(C)[C@@H](C(CC)CC)C(=O)N(C)[C@H](C(=O)N(C)C)CC(=O)N1C [PP2920] | – | – | – | – | HRAS/KRAS (ratio of KD value with respect to GDP-bound HRAS wild-type protein to KD value with respect to KRAS) [1]: A (a compound having 10 or more and less than 20 is denoted as A); NRAS/KRAS (ratio of KD value with respect to GDP-bound NRAS wild-type protein to KD value with respect to KRAS) [3]: AA (a compound having 20 or more is denoted as AA)
13 | – | CCO[C@@H]1C[C@H]2C(=O)NC3(CCC3)C(=O)N(C)[C@@H](C(CC)CC)C(=O)N(C)C(C(C)C)CC(=O)N(C)[C@@H](CC)C(=O)N[C@@H]([C@@H](C)CC)C(=O)N(C)CC(=O)N(C)[C@H]3C/C=C\CCN(C3=O)[C@@H](Cc3ccc(C(F)(F)F)cc3)C(=O)N(C)CC(=O)N[C@@H](CCc3cc(F)c(C(F)(F)F)c(F)c3)C(=O)N2C1 (stereo partly drawn) [PP1589] | – | – | – | – | HRAS/KRAS (ratio of KD value for HRAS to KD value for KRAS) ([1]; KD ratio class): A (a compound having 10 or more and less than 20 is denoted as A); pKd ([2]; SPR, Single Cycle Kinetics, 1:1 binding model): 8.74; NRAS/KRAS (ratio of KD value for NRAS to KD value for KRAS) ([3]; KD ratio class): A (a compound having 10 or more and less than 20 is denoted as A)
14 | 8.64 | CCO[C@@H]1C[C@H]2C(=O)NC3(CCC3)C(=O)N(C)[C@@H](C3CCCC3)C(=O)N(CC)[C@H](C(=O)N(C)C)CC(=O)N(C)[C@@H](CC)C(=O)N[C@@H]([C@@H](C)CC)C(=O)N(C)CC(=O)N(C)[C@H]3CCCCCN(C3=O)[C@@H](Cc3ccc(C(F)(F)F)cc3)C(=O)N(C)CC(=O)N[C@@H](CCc3cc(F)c(C(F)(F)F)c(F)c3)C(=O)N2C1 [PP0633] | B (a compound having 3 or more and less than 10 is denoted as B) | B (a compound having 3 or more and less than 10 is denoted as B) | – | – | –
